{"source": "patent US10105357B2", "about": "“Indication of antibiotic drugs for preparation of cancer inhibition pharmaceutical composition” (LAUNX BIOMEDICAL CO., LTD., priority 2014, dated 2018)", "key": {"[1]": {"test_system": "MDA-MB-231 (Mammary Gland, Adenocarcinoma)", "assay": "Cell viability analysis, breast cancer MDA-MB-231", "type": "cell-based, human", "conditions": "Homo sapiens, MDA-MB-231, 72 h, read-out: The results of antibiotic drug inhibiting cancer cell lines (cell viability analysis), MDA-MB231"}, "[2]": {"test_system": "HCT116 (p53+) (Colorectal Carcinoma)"}, "[3]": {"test_system": "A549 (Lung Adenocarcinoma)", "assay": "Cell viability analysis, lung cancer A549", "type": "cell-based, human", "conditions": "Homo sapiens, A549"}, "[4]": {"test_system": "A375 (Amelanotic Melanoma)", "assay": "Cell viability analysis, skin cancer A375", "type": "cell-based, human", "conditions": "Homo sapiens"}, "[5]": {"test_system": "MKN-45 (Gastric Adenocarcinoma)", "assay": "Cell viability analysis, gastric cancer MKN-45", "type": "cell-based, human", "conditions": "Homo sapiens, MKN-45"}, "[6]": {"test_system": "HeLa (Cervix Adenocarcinoma)", "assay": "Cell viability analysis, cervical cancer HeLa", "type": "cell-based, human", "conditions": "Homo sapiens, HeLa"}, "[7]": {"test_system": "NIH: OVCAR-3", "assay": "Cell viability analysis, ovarian cancer NIH: OVCAR-3", "type": "cell-based, human", "conditions": "Homo sapiens, OVCAR-3, 72 h, read-out: The results of antibiotic drug inhibiting cancer cell lines (cell viability analysis), NIH-OVCAR-3"}, "[8]": {"test_system": "AGS (Gastric Adenocarcinoma)", "assay": "Cell viability analysis, gastric cancer AGS", "type": "cell-based, human", "conditions": "Homo sapiens"}, "[9]": {"test_system": "MCF7 (Mammary Gland, Adenocarcinoma)", "assay": "Cell viability analysis, breast cancer MCF7", "type": "cell-based, human", "conditions": "Homo sapiens"}, "[10]": {"test_system": "Hep3B (hepatocellular carcinoma)", "assay": "Cell viability analysis, hepatic cancer Hep3B", "type": "cell-based, human", "conditions": "Homo sapiens, Hep3B, 72 h, read-out: The results of antibiotic drug inhibiting cancer cell lines (cell viability analysis), Hep3B"}, "[11]": {"test_system": "LoVo (Colorectal Adenocarcinoma)", "assay": "Cell viability analysis, colon cancer LoVo", "type": "cell-based, human", "conditions": "Homo sapiens, LoVo"}, "[12]": {"test_system": "BCC (basal cell carcinoma)", "assay": "Cell viability analysis, skin cancer BCC", "type": "cell-based, human", "conditions": "Homo sapiens, 72 h, read-out: The results of antibiotic drug inhibiting cancer cell lines (cell viability analysis), BCC"}, "[13]": {"test_system": "AsPC-1", "assay": "Cell viability analysis, pancreatic cancer AsPC-1", "type": "cell-based, human", "conditions": "Homo sapiens, ASPC1, 72 h, read-out: The results of antibiotic drug inhibiting cancer cell lines (cell viability analysis), AsPC-1"}, "[14]": {"test_system": "SAS (Tongue squamous cell carcinoma)", "assay": "Cell viability analysis, tongue cancer SAS", "type": "cell-based, human", "conditions": "Homo sapiens, 72 h, read-out: The results of antibiotic drug inhibiting cancer cell lines (cell viability analysis), SAS"}, "[15]": {"test_system": "C-33A (Cervical carcinoma)", "assay": "Cell viability analysis, cervical cancer C-33A", "type": "cell-based, human", "conditions": "Homo sapiens, C-33-A, 72 h, read-out: The results of antibiotic drug inhibiting cancer cell lines (cell viability analysis), C-33A"}, "[16]": {"test_system": "PC3 (p53−) (Prostate Adenocarcinoma)", "assay": "Cell viability analysis, prostate cancer PC3", "type": "cell-based, human", "conditions": "Homo sapiens"}, "[17]": {"test_system": "TSGH-8301 (Urinary Bladder Carcinoma)", "assay": "Cell viability analysis, bladder cancer TSGH-8301", "type": "cell-based, human", "conditions": "Homo sapiens"}, "[18]": {"test_system": "HepG2 (Hepatocellular Carcinoma)", "assay": "Cell viability analysis, hepatic cancer HepG2", "type": "cell-based, human", "conditions": "Homo sapiens, HepG2"}, "[19]": {"test_system": "U-2OS", "assay": "Cell viability analysis, osteosarcoma U-2OS", "type": "cell-based, human", "conditions": "Homo sapiens, U2OS, 72 h, read-out: The results of antibiotic drug inhibiting cancer cell lines (cell viability analysis), U2OS"}, "[20]": {"test_system": "HI650 (Lung Adenocarcinoma)", "assay": "Cell viability analysis, lung cancer HI650", "type": "cell-based, human", "conditions": "Homo sapiens"}, "[21]": {"test_system": "786-O (Renal adenocarcinoma)", "assay": "Cell viability analysis, renal cancer 786-O", "type": "cell-based, human", "conditions": "Homo sapiens, 786-0, 72 h, read-out: The results of antibiotic drug inhibiting cancer cell lines (cell viability analysis), 786-O"}, "[22]": {"test_system": "HL-60 (Acute Promyelocytic Leukemia)", "assay": "Cell viability analysis, leukemia HL-60", "type": "cell-based, human", "conditions": "Homo sapiens, HL-60; drug 10 μM, 72 hours, WST-1, OD450 nm; read-out: cell viability (survival rate), HL-60"}, "[23]": {"test_system": "T24", "assay": "Cell viability analysis, bladder cancer T24", "type": "cell-based, human", "conditions": "Homo sapiens, T-24, 72 h, read-out: The results of antibiotic drug inhibiting cancer cell lines (cell viability analysis), T24"}, "[24]": {"test_system": "TOV-21G", "assay": "Cell viability analysis, ovarian cancer TOV-21G", "type": "cell-based, human", "conditions": "Homo sapiens, TOV21G, 72 h, read-out: The results of antibiotic drug inhibiting cancer cell lines (cell viability analysis), TOV-21G"}, "[25]": {"test_system": "BxPC-3", "assay": "Cell viability analysis, pancreatic cancer BxPC-3", "type": "cell-based, human", "conditions": "Homo sapiens, BXPC-3, 72 h, read-out: The results of antibiotic drug inhibiting cancer cell lines (cell viability analysis), BxPC-3"}}, "note": "Like-named read-outs stand apart in the source and are kept apart here."}
{"smiles": "CCC[C@H](NC(=O)[C@@H]1[C@H]2CCC[C@H]2CN1C(=O)[C@@H](NC(=O)[C@@H](NC(=O)c1cnccn1)C1CCCCC1)C(C)(C)C)C(=O)C(=O)NC1CC1", "note": "[Telaprevir (VX-950), Telaprevir]", "values": [{"measurement": "viability at 10 µM", "setting": "[1]", "result": 95.6, "unit": "%"}, {"measurement": "viability", "setting": "[2]", "result": 93.6, "unit": "%"}, {"measurement": "viability at 10 µM", "setting": "[3]; 72 h, repeated experiment, read-out: The results of antibiotic drug inhibiting cancer cell lines (cell viability analysis), A549", "result": 80.4, "unit": "%"}, {"measurement": "viability at 10 µM", "setting": "[3]; drug 10 μM, 72 hours, WST-1, OD450 nm, read-out: cell viability (survival rate), A549", "result": 49.3, "unit": "%"}, {"measurement": "viability at 10 µM", "setting": "[4]; A-375, 72 h, A375, repeated experiment, read-out: The results of antibiotic drug inhibiting cancer cell lines (cell viability analysis), A375", "result": 105, "unit": "%"}, {"measurement": "viability at 10 µM", "setting": "[4]; A-375, drug 10 μM, 72 hours, WST-1, OD450 nm, read-out: cell viability (survival rate), A375", "result": 131, "unit": "%"}, {"measurement": "viability at 10 µM", "setting": "[5]; 72 h, repeated experiment, read-out: The results of antibiotic drug inhibiting cancer cell lines (cell viability analysis), MKN-45", "result": 107, "unit": "%"}, {"measurement": "viability at 10 µM", "setting": "[5]; drug 10 μM, 72 hours, WST-1, OD450 nm, read-out: cell viability (survival rate), MKN-45", "result": 48, "unit": "%"}, {"measurement": "viability at 10 µM", "setting": "[6]; 72 h, repeated experiment, read-out: The results of antibiotic drug inhibiting cancer cell lines (cell viability analysis), HeLa", "result": 92.6, "unit": "%"}, {"measurement": "viability at 10 µM", "setting": "[6]; drug 10 μM, 72 hours, WST-1, OD450 nm, read-out: cell viability (survival rate), HeLa", "result": 84, "unit": "%"}, {"measurement": "viability at 10 µM", "setting": "[7]", "result": 95.6, "unit": "%"}, {"measurement": "viability at 10 µM", "setting": "[8]; 72 h, AGS, repeated experiment, read-out: The results of antibiotic drug inhibiting cancer cell lines (cell viability analysis), AGS", "result": 111, "unit": "%"}, {"measurement": "viability at 10 µM", "setting": "[8]; drug 10 μM, 72 hours, WST-1, OD450 nm, read-out: cell viability (survival rate), AGS", "result": 49.2, "unit": "%"}, {"measurement": "viability at 10 µM", "setting": "[9]; MCF7, 72 h, MCF-7, repeated experiment, read-out: The results of antibiotic drug inhibiting cancer cell lines (cell viability analysis), MCF-7", "result": 76.4, "unit": "%"}, {"measurement": "viability at 10 µM", "setting": "[9]; MCF7, drug 10 μM, 72 hours, WST-1, OD450 nm, read-out: cell viability (survival rate), MCF7", "result": 61.6, "unit": "%"}, {"measurement": "viability at 10 µM", "setting": "[10]", "result": 121, "unit": "%"}, {"measurement": "viability at 10 µM", "setting": "[11]; 72 h, repeated experiment, read-out: The results of antibiotic drug inhibiting cancer cell lines (cell viability analysis), LoVo", "result": 87, "unit": "%"}, {"measurement": "viability at 10 µM", "setting": "[11]; drug 10 μM, 72 hours, WST-1, OD450 nm, read-out: cell viability (survival rate), LoVo", "result": 73.7, "unit": "%"}, {"measurement": "viability at 10 µM", "setting": "[12]", "result": 92.5, "unit": "%"}, {"measurement": "viability at 10 µM", "setting": "[13]", "result": 69.3, "unit": "%"}, {"measurement": "viability at 10 µM", "setting": "[14]", "result": 67.6, "unit": "%"}, {"measurement": "viability at 10 µM", "setting": "[15]", "result": 102, "unit": "%"}, {"measurement": "viability at 10 µM", "setting": "[16]; 72 h, PC-3, repeated experiment, read-out: The results of antibiotic drug inhibiting cancer cell lines (cell viability analysis), PC-3", "result": 89.2, "unit": "%"}, {"measurement": "viability at 10 µM", "setting": "[16]; drug 10 μM, 72 hours, WST-1, OD450 nm, read-out: cell viability (survival rate), PC3", "result": 50, "unit": "%"}, {"measurement": "viability at 10 µM", "setting": "[17]; 72 h, TSGH-8301, repeated experiment, read-out: The results of antibiotic drug inhibiting cancer cell lines (cell viability analysis), TSGH-8301", "result": 103, "unit": "%"}, {"measurement": "viability at 10 µM", "setting": "[17]; drug 10 μM, 72 hours, WST-1, OD450 nm, read-out: cell viability (survival rate), TSGH", "result": 50.2, "unit": "%"}, {"measurement": "viability at 10 µM", "setting": "[18]; 72 h, repeated experiment, read-out: The results of antibiotic drug inhibiting cancer cell lines (cell viability analysis), HepG2", "result": 114, "unit": "%"}, {"measurement": "viability at 10 µM", "setting": "[18]; drug 10 μM, 72 hours, WST-1, OD450 nm, read-out: cell viability (survival rate), HepG2", "result": 100, "unit": "%"}, {"measurement": "viability at 10 µM", "setting": "[19]", "result": 63.4, "unit": "%"}, {"measurement": "viability at 10 µM", "setting": "[20]; NCI-H1650, 72 h, H1650, repeated experiment, read-out: The results of antibiotic drug inhibiting cancer cell lines (cell viability analysis), H1650", "result": 107, "unit": "%"}, {"measurement": "viability at 10 µM", "setting": "[20]; NCI-H1650, drug 10 μM, 72 hours, WST-1, OD450 nm, read-out: cell viability (survival rate), H1650", "result": 51.6, "unit": "%"}, {"measurement": "viability at 10 µM", "setting": "[21]", "result": 94.8, "unit": "%"}, {"measurement": "viability at 10 µM", "setting": "[22]", "result": 111, "unit": "%"}, {"measurement": "viability at 10 µM", "setting": "[23]", "result": 115, "unit": "%"}, {"measurement": "viability at 10 µM", "setting": "[24]", "result": 81.6, "unit": "%"}, {"measurement": "viability at 10 µM", "setting": "[25]", "result": 63.9, "unit": "%"}]}
